Measured values reported in patent US8236854B2, “Lipid-improving agent and composition containing lipid-improving agent” (Suntory Holdings Limited, priority 2003, dated 2012).
Marks after values point to notes of the source that are not given here.

Key:
Assay type in all cases: in vivo, rat
Male rats of SD strain [1] = assay: Serum lipid lowering action of structured lipids in high-fat food, two weeks (Example 6); conditions: High-TG Food (20% fat) with 7.5% structured lipid, 2 weeks
Text: Influence of arachidonic acid chemically synthesized in Example 2 on serum lipid lowering action of the constituting fatty acid was investigated in a high-fat foods.
Male rats of SD strain of 5 weeks age were divided into eight groups each comprising five rats, acclimatized for one week with a standard solid feed and ingested for two weeks with the experimental food as shown in Table 7 and Table 8 (normal, high-TG, 7.5% PPP, 7.5% PAP, 7.5% PPA, 7.5% 8P8, 7.5% 8A8 and 7.5% 88A). Incidentally, the condition for a high-fat food was that the rate of fat/oil in the feed was made 20%, beef tallow abundant in saturated fatty acid was used as a base and 2% of corn oil were compounded to avoid the deficiency of essential fatty acids. In the control group, an experimental food (high-TG food, 20% fat/oil food) compounded with 18% of […] (20% as a result of addition of 2% of corn oil) was used.

Male rats of SD strain [2] = assay: Ingestion of experimental food with 10% structured lipid for two weeks: body weight, liver weight, serum lipid concentration (Example 5); conditions: 10% structured lipid in experimental food, 2 weeks
Text: (§1) Influence of the structured lipid where arachidonic acid chemically synthesized in Example 2 as a constituting fatty acid on expression of lipid metabolism-related gene was investigated using rats.
(§2) Male rats of SD strain of 5 weeks age were divided into four groups each comprising five rats, acclimatized for one week with a standard solid feed and ingested for two weeks with an experimental food (10% PPA and 10% PAP; Table 5) compounded with 10% of arachidonic acid-containing structured lipid (PPA or PAP). In the control group, an experimental food (10% PPP) compounded with 10% of PPP was used. In ingestion of the food, a pair-feeding was conducted and body weight was measured every day.

[3] = test system: target gene of PPAR of jejunum; assay: Influence of structured lipid on expression of target gene of PPAR of jejunum (Example 5); conditions: rats, 10% structured lipid food, compared with PPP food control group
Text: as §1, §2
Influence of structured lipid on expression of target gene of PPAR of jejunum is shown (FIG. 4). From PPA, each one molecule of palmitic acid and arachidonic acid is dissociated and absorbed by the action of pancreatic lipase specific to 1,3-positions and arachidonic acid having a particularly strong PPAR ligand activity acts as a PPARα ligand in small intestine and, therefore, expressed amount of target gene of PPAR increased in a group of 10% PPA food as compared with a PPP food group which is a control group. […]

PPARα mRNA of liver = assay: Influence of structured lipid on liver PPARα mRNA expression (Example 5); conditions: rats, 10% PAP food, 2 weeks
Text: as §1, §2
Two molecules of palmitic acid and one molecule of 2-AG incorporated into epidermal cells of small intestine are reconstructed to a triglyceride(s) (in that case, although there is a possibility of bonding of other inherent fatty acids existing in the epidermal cells of the small intestine to 1,3-positions, arachidonic acid bonded to 2-position is retained), incorporated into chylomicron, transferred to peripheral tissues together with secretion of lymph and blood flow and finally incorporated into liver.

Row | Compound | Serum Total Cholesterol Concn (Male rats of SD strain [1]) | Serum Triglyceride(s) Concn (Male rats of SD strain [1]) | Serum Total Cholesterol Concn (Male rats of SD strain [2]) | Serum Triglyceride(s) Concn (Male rats of SD strain [2]) | Expressed amount of target gene of PPAR in jejunum [3] | Expressed amount of PPARα mRNA of liver (PPARα mRNA of liver)
1 | CCCCCCCCCCCCCCCC(=O)OCC(COC(=O)CCCCCCCCCCCCCCC)OC(=O)CCCCCCCCCCCCCCC [PPP, reference compound] | 104.3 ± 5.9^b μmol/dl | 109.2 ± 6.8^b μmol/dl | 201 ± 9.2^a μmol/dl | 316 ± 64.3^b μmol/dl |  | 
2 | CCCCC/C=C\C/C=C\C/C=C\C/C=C\CCCC(=O)OCC(COC(=O)CCCCCCCCCCCCCCC)OC(=O)CCCCCCCCCCCCCCC (centres unmarked) [PPA, 1(3),2-dipalmitoyl-3(1)-arachidonoyl glyceride] | 92.4 ± 4.9^a μmol/dl | 93.1 ± 1.3^a μmol/dl | 150 ± 16.6^b μmol/dl | 173 ± 6.6^b μmol/dl | increased | 
3 | CCCCC/C=C\C/C=C\C/C=C\C/C=C\CCCC(=O)OC(COC(=O)CCCCCCCCCCCCCCC)COC(=O)CCCCCCCCCCCCCCC [PAP, 1,3-dipalmitoyl-2-arachidonoyl glyceride] | 91.7 ± 3.3^a μmol/dl | 80.4 ± 3.9^a μmol/dl | 178 ± 15.3^ab μmol/dl | 174 ± 7.5^b μmol/dl |  | significantly increased
4 | CCCCC/C=C\C/C=C\C/C=C\C/C=C\CCCC(=O)OCC(COC(=O)CCCCCCC)OC(=O)CCCCCCC (centres unmarked) [88A, 1(3),2-dioctanoyl-3(1)-arachidonoyl glyceride] | 92.9 ± 2.9^a μmol/dl | 83.1 ± 3.6^a μmol/dl |  |  |  | 
5 | CCCCC/C=C\C/C=C\C/C=C\C/C=C\CCCC(=O)OC(COC(=O)CCCCCCC)COC(=O)CCCCCCC [8A8, 1,3-dioctanoyl-2-arachidonoyl glyceride] | 85.6 ± 2.5^b μmol/dl | 63.3 ± 4.1^a μmol/dl |  |  |  | 
6 | CCCCCCCCCCCCCCCC(=O)OC(COC(=O)CCCCCCC)COC(=O)CCCCCCC [8P8, 1,3-capryloyl-2-palmitoyl-glyceride, reference compound] | 99.7 ± 4.2^b μmol/dl | 101.8 ± 5.3^b μmol/dl |  |  |  | 
